Values quoted from earlier work as cited in patent US20220088024A1, “METHODS FOR TREATING CANCER USING TOZADENANT” (Biotie Therapies, Inc., priority 2018, published 2022).

Test system: mouse tumor models
Settings: cited from earlier work

Row | Compound | Efficacy in mouse tumor models (alone and in combination with an anti-PD-1 agent (Willingham et al. 2016)) | Activity in a mouse tumor model (monotherapy (Hammerl et al. 2016))
1 | Cc1ccc(-c2nc(N)nc3c2nnn3Cc2cccc(CO[C@H]3CCOC3)n2)o1 [CPI444] | effective | 
2 | Nc1nc2c(cnn2CCc2ccccc2)c2nc(-c3ccco3)nn12 [SCH 58261] |  | demonstrated activity as monotherapy
